Active and inactive are the calls of the source. The rule behind the calls is not given here.
Legend:
Streptococcus pneumoniae [1] = assay: Antibacterial activity against 1.5 x 10^7 CFU Streptococcus pneumoniae serotype 19 infected in therapeutic C57BL/6 mouse model assessed as effect on leukocytes infiltration in BALF at 6 mg/kg, ip measured on day 3 post infection; assay type: functional, organism-based; design: dose 6 mg/kg
Streptococcus pneumoniae [2] = assay: Antibacterial activity against 1.5 x 10^7 CFU Streptococcus pneumoniae serotype 2 infected in therapeutic C57BL/6 mouse model assessed as survival rate at 20 mg/kg, ip qd beginning 2 days post infection measured after 3 days post infection; assay type: functional; details: route intraperitoneal
Streptococcus pneumoniae [3] = assay: Antibacterial activity against 5 x 10^6 CFU Streptococcus pneumoniae serotype 2 infected in semitherapeutic C57BL/6 mouse model assessed as bacterial count in liver at 6 mg/kg, ip measured after 1 day post infection; assay type: functional; details: route intraperitoneal
Streptococcus pneumoniae [4] = assay: Antibacterial activity against low dose 5 x 10^6 CFU Streptococcus pneumoniae serotype 19 infected in semitherapeutic C57BL/6 mouse model assessed as bacteremic mouse at 6 mg/kg, ip measured after 10 day post infection; assay type: functional, organism-based; design: dose 6 mg/kg
Streptococcus pneumoniae [5] = assay: Antibacterial activity against high dose 1.5 x 10^7 CFU Streptococcus pneumoniae serotype 19 infected in semitherapeutic C57BL/6 mouse model assessed as bacterial count in lung at 6 mg/kg, ip measured after 3 days post infection; assay type: functional; details: route intraperitoneal
Streptococcus pneumoniae [6] = assay: Antibacterial activity against 1.5 x 10^7 CFU Streptococcus pneumoniae serotype 19 infected in therapeutic C57BL/6 mouse model assessed as increase in compound level in BALF at 6 mg/kg, ip measured on day 3 post infection; assay type: functional, organism-based; design: dose 6 mg/kg
Streptococcus pneumoniae [7] = assay: Antibacterial activity against low dose 5 x 10^6 CFU Streptococcus pneumoniae serotype 2 infected in semitherapeutic C57BL/6 mouse model assessed as reduction of bacteremia at 6 mg/kg, ip measured after 10 day post infection; assay type: functional, organism-based; design: dose 6 mg/kg
Streptococcus pneumoniae [8] = assay: Antibacterial activity against 5 x 10^6 CFU Streptococcus pneumoniae serotype 2 infected in semitherapeutic C57BL/6 mouse model assessed as reduction of bacteremia at 6 mg/kg, ip measured after 2 days post infection; assay type: functional, organism-based; design: dose 6 mg/kg
Streptococcus pneumoniae [9] = assay: Antibacterial activity against 1.5 x 10^7 CFU Streptococcus pneumoniae serotype 19 infected in therapeutic C57BL/6 mouse model assessed as effect on lung permeability at 6 mg/kg, ip measured on day 3 post infection; assay type: functional, organism-based; design: dose 6 mg/kg
Streptococcus pneumoniae [10] = assay: Antibacterial activity against high dose 1.5 x 10^7 CFU Streptococcus pneumoniae serotype 2 infected in therapeutic C57BL/6 mouse model assessed as bacterial count in lung at 6 mg/kg, ip measured after 3 days post infection; assay type: functional; details: route intraperitoneal
Streptococcus pneumoniae [11] = assay: Antibacterial activity against high dose 1.5 x 10^7 CFU Streptococcus pneumoniae serotype 2 infected in therapeutic C57BL/6 mouse model assessed as reduction of bacteremia at 6 mg/kg, ip measured after 5 day post infection; assay type: functional, organism-based; design: dose 6 mg/kg
Streptococcus pneumoniae [12] = assay: Antibacterial activity against low dose 5 x 10^6 CFU Streptococcus pneumoniae serotype 2 infected in semitherapeutic C57BL/6 mouse model at 6 mg/kg, ip over a period of 14 days; assay type: functional, organism-based; design: dose 6 mg/kg
Streptococcus pneumoniae [13] = assay: Antibacterial activity against high dose 1.5 x 10^7 CFU Streptococcus pneumoniae serotype 19 infected in semitherapeutic C57BL/6 mouse model assessed as bacterial count in lung at 6 mg/kg, ip measured after 2 days post infection; assay type: functional; details: route intraperitoneal
Streptococcus pneumoniae [14] = assay: Antibacterial activity against low dose 5 x 10^6 CFU Streptococcus pneumoniae serotype 2 infected in semitherapeutic C57BL/6 mouse model assessed as reduction of bacteremia at 6 mg/kg, ip measured after 5 day post infection; assay type: functional, organism-based; design: dose 6 mg/kg
Streptococcus pneumoniae [15] = assay: Antibacterial activity against high dose 1.5 x 10^7 CFU Streptococcus pneumoniae serotype 19 infected in semitherapeutic C57BL/6 mouse model assessed as reduction of bacteremia at 6 mg/kg, ip measured after 3 days post infection; assay type: functional, organism-based; design: dose 6 mg/kg
Streptococcus pneumoniae [16] = assay: Antibacterial activity against 5 x 10^6 CFU Streptococcus pneumoniae serotype 2 infected in semitherapeutic C57BL/6 mouse model assessed as bacterial count in lung at 6 mg/kg, ip measured after 3 days post infection; assay type: functional; details: route intraperitoneal
Streptococcus pneumoniae [17] = assay: Antibacterial activity against high dose 1.5 x 10^7 CFU Streptococcus pneumoniae serotype 19 infected in semitherapeutic C57BL/6 mouse model assessed as bacterial count in lung at 6 mg/kg, ip measured after 1 day post infection; assay type: functional; details: route intraperitoneal
Streptococcus pneumoniae [18] = assay: Antibacterial activity against high dose 1.5 x 10^7 CFU Streptococcus pneumoniae serotype 19 infected in semitherapeutic C57BL/6 mouse model assessed as bacteremic mice at 6 mg/kg, ip measured after 4 days post infection; assay type: functional, organism-based; design: dose 6 mg/kg
Streptococcus pneumoniae [19] = assay: Antibacterial activity against high dose 1.5 x 10^7 CFU Streptococcus pneumoniae serotype 2 infected in therapeutic C57BL/6 mouse model assessed as bacterial count in lung at 6 mg/kg, ip measured after 4 days post infection; assay type: functional; details: route intraperitoneal
Streptococcus pneumoniae [20] = assay: Antibacterial activity against low dose 5 x 10^6 CFU Streptococcus pneumoniae serotype 19 infected in semitherapeutic C57BL/6 mouse model assessed as bacterial count in lung at 6 mg/kg, ip measured after 5 day post infection; assay type: functional; details: route intraperitoneal
Streptococcus pneumoniae [21] = assay: Antibacterial activity against high dose 1.5 x 10^7 CFU Streptococcus pneumoniae serotype 2 infected in semitherapeutic C57BL/6 mouse model assessed as reduction of bacteremiar at 6 mg/kg, ip measured after 3 days post infection; assay type: functional, organism-based; design: dose 6 mg/kg
Streptococcus pneumoniae [22] = assay: Antibacterial activity against 1.5 x 10^7 CFU Streptococcus pneumoniae serotype 19 infected in therapeutic C57BL/6 mouse model assessed as increase in serum compound level at 6 mg/kg, ip measured on day 3 post infection; assay type: functional, organism-based; design: dose 6 mg/kg
Streptococcus pneumoniae [23] = assay: Antibacterial activity against low dose 5 x 10^6 CFU Streptococcus pneumoniae serotype 2 infected in semitherapeutic C57BL/6 mouse model assessed as bacterial count in lung at 6 mg/kg, ip measured after 10 day post infection; assay type: functional; details: route intraperitoneal
Streptococcus pneumoniae [24] = assay: Antibacterial activity against high dose 1.5 x 10^7 CFU Streptococcus pneumoniae serotype 2 infected in therapeutic C57BL/6 mouse model assessed as bacterial count in blood at 6 mg/kg, ip measured after 3 days post infection; assay type: functional; details: route intraperitoneal
Streptococcus pneumoniae [25] = assay: Antibacterial activity against low dose 5 x 10^6 CFU Streptococcus pneumoniae serotype 19 infected in semitherapeutic C57BL/6 mouse model assessed as bacteremic mouse at 6 mg/kg, ip measured after 3 days post infection; assay type: functional, organism-based; design: dose 6 mg/kg
Streptococcus pneumoniae [26] = assay: Antibacterial activity against low dose 5 x 10^6 CFU Streptococcus pneumoniae serotype 19 infected in semitherapeutic C57BL/6 mouse model assessed as bacteremic mouse at 6 mg/kg, ip measured after 1 day post infection; assay type: functional, organism-based; design: dose 6 mg/kg
Streptococcus pneumoniae [27] = assay: Antibacterial activity against 5 x 10^6 CFU Streptococcus pneumoniae serotype 2 infected in semitherapeutic C57BL/6 mouse model assessed as bacterial count in blood at 6 mg/kg, ip measured after 1 day post infection; assay type: functional; details: route intraperitoneal
Streptococcus pneumoniae [28] = assay: Antibacterial activity against low dose 5 x 10^6 CFU Streptococcus pneumoniae serotype 19 infected in semitherapeutic C57BL/6 mouse model assessed as bacterial count in lung at 6 mg/kg, ip measured after 2 days post infection; assay type: functional; details: route intraperitoneal
Streptococcus pneumoniae [29] = assay: Antibacterial activity against low dose 5 x 10^6 CFU Streptococcus pneumoniae serotype 2 infected in semitherapeutic C57BL/6 mouse model assessed as bacterial count in lung at 6 mg/kg, ip measured after 5 day post infection; assay type: functional; details: route intraperitoneal
Streptococcus pneumoniae [30] = assay: Antibacterial activity against high dose 1.5 x 10^7 CFU Streptococcus pneumoniae serotype 2 infected in semitherapeutic C57BL/6 mouse model assessed as bacterial count in lung at 6 mg/kg, ip measured after 2 days post infection; assay type: functional; details: route intraperitoneal

With `CCCCCCCCCC(=O)N[C@@H](Cc1c[nH]c2ccccc12)C(=O)N[C@H](CC(N)=O)C(=O)N[C@@H](CC(=O)O)C(=O)N[C@@H]1C(=O)NCC(=O)N[C@@H](CCCN)C(=O)N[C@@H](CC(=O)O)C(=O)N[C@H](C)C(=O)N[C@@H](CC(=O)O)C(=O)NCC(=O)N[C@H](CO)C(=O)N[C@@H]([C@H](C)CC(=O)O)C(=O)N[C@@H](CC(=O)c2ccccc2N)C(=O)O[C@@H]1C` the Activity (Streptococcus pneumoniae [1]) was “Active”, the Activity (Streptococcus pneumoniae [2]) was 60% and the log10cfu (Streptococcus pneumoniae [3]) was 1.8. The Activity (Streptococcus pneumoniae [4]) was “Active”, the log10cfu (Streptococcus pneumoniae [5]) was 7.1 and the Activity (Streptococcus pneumoniae [6]) was “Active”. For the same compound, the Activity (Streptococcus pneumoniae [7]) was “Active”, the Activity (Streptococcus pneumoniae [8]) was “Active” and the Activity (Streptococcus pneumoniae [9]) was “Active”. For the same compound, the log10cfu (Streptococcus pneumoniae [10]) was 5.5, the Activity (Streptococcus pneumoniae [11]) was “Active” and the Activity (Streptococcus pneumoniae [12]) was “Active”. The log10cfu (Streptococcus pneumoniae [13]) was 6.2, the Activity (Streptococcus pneumoniae [14]) was “Active” and the Activity (Streptococcus pneumoniae [15]) was “Active”. The log10cfu (Streptococcus pneumoniae [16]) was 3.8, the log10cfu (Streptococcus pneumoniae [17]) was 6.4 and the Activity (Streptococcus pneumoniae [18]) was “Active”. For the same compound, the log10cfu (Streptococcus pneumoniae [19]) was 2.9, the log10cfu (Streptococcus pneumoniae [20]) was 3.5 and the Activity (Streptococcus pneumoniae [21]) was “Active”. The Activity (Streptococcus pneumoniae [22]) was “Active”, the log10cfu (Streptococcus pneumoniae [23]) was 2.5 and the log10cfu (Streptococcus pneumoniae [24]) was 2.3. The Activity (Streptococcus pneumoniae [25]) was “Active”, the Activity (Streptococcus pneumoniae [26]) was “Active” and the log10cfu (Streptococcus pneumoniae [27]) was 2. The log10cfu (Streptococcus pneumoniae [28]) was 5.5, the log10cfu (Streptococcus pneumoniae [29]) was 3.2 and the log10cfu (Streptococcus pneumoniae [30]) was 4.2.

Reference: ChEMBL document CHEMBL1240356, “Efficacy profiles of daptomycin for treatment of invasive and noninvasive pulmonary infections with Streptococcus pneumoniae” (2010)
